One data set has as its target KRAS (G12D)::SOS1 (Homo sapiens (Human), UniProt P01116, G12D). The data set can be described thus: KRAS::SOS1 AlphaScreen binding assay, KRAS G12D. The text has this: This assay can be used to examine the potency with which compounds according to the invention binding to (mutated) KRAS inhibit the protein-protein interaction between SOS1 and (mutated) KRAS e.g., KRAS WT, KRAS G12C, KRAS G12D, KRAS G12V, KRAS G13D. […] Low IC50 values in this assay setting are indicative of strong inhibition of protein-protein interaction between SOS1 and KRAS:
These assays measure the inhibitory effect of compounds on KRAS mutant protein-protein interactions using the Alpha Screen technology by Perkin Elmer.
The following (mutant) enzyme forms of KRAS and interacting proteins are used in these assays at the given concentrations: • KRAS (G12D) 1-169, N-terminal 6His-tag, C-terminal avi-tag (Xtal BioStructures, Inc.); final assay concentration 10 nM and SOS1 564-1049, N-terminal 229 GST-tag, TEV cleavage site (Viva Biotech Ltd); final assay concentration 5 nM; • KRAS (G12C) 1-169, N-terminal 6His-tag for purification, cleaved off, C-terminal avi-tag, biotinylated, mutations: C51S, C80L, C118S (in house); final assay concentration 7.5 nM and SOS1 564-1049, N-terminal 229 GST-tag, TEV cleavage site (Viva Biotech Ltd); final assay concentration 5 nM; • KRAS (G12V) 1-169, N-terminal 6His-tag for purification, cleaved off, C-terminal avi-tag, biotinylated, TEV cleavage site, mutation: C118S, GDP loaded (in house); final assay concentration 10 nM and SOS1 564-1049, N-terminal 229 GST-tag, TEV cleavage site (Viva Biotech Ltd); final assay concentration 10 nM; • KRAS (G13D) 1-169, N-terminal 6His-tag for purification, cleaved off, C-terminal avi-tag, biotinylated, TEV cleavage site, mutation: C118S, GDP loaded (in house); final assay concentration 10 nM and SOS1 564-1049, N-terminal 229 GST-tag, TEV cleavage site (Viva Biotech Ltd); final assay concentration 10 nM; • KRAS (WT) 1-169, N-terminal 6His-tag for purification, cleaved off, C-terminal avi-tag, biotinylated, TEV cleavage site, mutation: C118S, GDP loaded (in house); final assay concentration 10 nM and SOS1 564-1049, N-terminal 229 GST-tag, TEV cleavage site (Viva Biotech Ltd); final assay concentration 10 nM.
Test compounds dissolved in DMSO are dispensed onto assay plates (Proxiplate 384 PLUS, white, PerkinElmer; 6008289) using an Access Labcyte Workstation with the Labcyte Echo 55×. For the chosen highest assay concentration of 100 μM, 150 nL of compound solution are transferred from a 10 mM DMSO compound stock solution. A series of eleven fivefold dilutions per compound are transferred to the assay plate, compound dilutions are tested in duplicates. DMSO are added as backfill to a total volume of 150 nL.
The assays run on a fully automated robotic system in a darkened room below 100 Lux. To 150 nl of compound dilution 10 μl of a mix including KRAS mutant protein, SOS1 (final assay concentrations see above) and GDP nucleotide (Sigma G7127; final assay concentration 10 μM) in assay buffer (1×PBS, 0.1% BSA, 0.05% Tween 20) are added into columns 1-24.
After 30 minutes incubation time 5 μl of Alpha Screen bead mix in assay buffer are added into columns 1-23. Bead mix consists of AlphaLISA Glutathione Acceptor Beads (PerkinElmer, Cat No AL109) and AlphaScreen Streptavidin Donor Beads (PerkinElmer Cat No 6760002) in assay buffer at a final assay concentration of 10 μg/ml each.
Plates are kept at room temperature in a darkened incubator. After an additional 60 minutes incubation time the signal is measured in a PerkinElmer Envision HTS Multilabel Reader using the AlphaScreen specs from PerkinElmer.
Each plate contains up to 16 wells of a negative control depending on the dilution procedure (platewise or serial) (DMSO instead of test compound; with KRAS mutant::SOS1 GDP mix and bead mix; column 23) and 16 wells of a positive control (DMSO instead of test compound; with KRAS mutant::SOS1 GDP mix w/o bead mix; column 24).
As internal control known inhibitors of KRAS mutant::SOS1 interaction can be measured on each compound plate. […]
A general note: In Alpha technology, singlet oxygen from a donor bead excites a nearby acceptor bead.

Data set [1] can be described thus: Solubility measurement (DMSO solution method), McIlvaine buffer pH 4.5 or 6.8. The note with it: aqueous buffer, kinetic from dmso stock, DMSO stock diluted to 250 μM, 24 h shaking at ambient temperature. The format is physicochemical. The procedure:
The DMSO solution is diluted with an aqueous medium (Mcllvaine buffer with pH=4.5 or 6.8) to a final concentration of 250 μM. After 24 h of shaking at ambient temperature a potentially formed precipitate is removed by filtration. The concentration of the test compound in the filtrate is determined by LC-UV methods by calibrating the signal to the signal of a reference solution with complete dissolution of the test compound in acetonitrile/water (1:1) with known concentration.

Data set [2] is described as follows: Plasma protein binding assay (PPB), equilibrium dialysis, 10% FCS in PBS. The note with it: bovine, read-out: PPB 10% FCS (% fu). It is filed as in vitro ADME. As to the method:
Binding of test compounds to plasma was determined using equilibrium dialysis (ED) and quantitative mass spectrometry interfaced with liquid chromatography (LC-MS). In brief, ED was performed with dialysis devices consisting of two chambers separated by a semipermeable membrane with a molecular weight cut-off of 5-10 kg/mol. One chamber was filled with 10% FCS in PBS containing 1-10 μmol/L test compound and the other chamber was filled with phosphate-buffer saline (PBS) with or without dextran. The dialysis chamber was incubated for 3-5 hours at 37° C. After incubation, protein was precipitated from aliquots of each chamber and the concentration of test compound in the supernatant of the plasma-containing compartment (Cserum) and of the buffer-containing compartment (Cbuffer) was determined by LC-MS. The fraction of unbound test compound (not bound to plasma) (fu) was calculated according to the following equation: […]
On the technique in general: Equilibrium dialysis compares concentrations on both sides of a semipermeable membrane.

Another data set concerns SAS cells. The data set can be described thus: SAS CTG proliferation assay (120 h) (HNSCC, wt amplified). The format is cell-based. As to the method: SAS CTG Proliferation Assay (120 h) (HNSCC, Wt Amplified)
SAS cells (JCRB0260) are dispensed into 384-well plates, flat and clear bottom (Greiner, PNr. 781091) at a density of 300 cells per well in 60 μL DMEM:F12 (Gibco 31330-038)+10% Fetal Calf Serum (HyClone, PNr.: SH30084.03) and incubated at 37° C. in a CO2 incubator overnight. The next day, compounds (10 mM stock in DMSO) are added with the ECHO acoustic liquid handler system (Beckman Coulter), including DMSO controls. Plates are incubated for 120 h, and cell viability is measured using CellTiter-Glo luminescent cell viability reagent (Promega product code G7570). Viability (stated as percent of control) is defined as relative luminescence units RLU of each well divided by the RLU of cells in DMSO controls. IC50 values are determined from viability measurements by non-linear regression using a four-parameter model.

The mark [3] stands for this setting: McIlvaine buffer pH 4.5, read-out: solubility pH 4.5.
The mark [4] stands for this setting: McIlvaine buffer pH 6.8, read-out: solubility pH 6.8.

These results are taken from patent publication US20240174690A1, “ANNULATED 2-AMINO-3-CYANO THIOPHENES AND DERIVATIVES FOR THE TREATMENT OF CANCER” (BOEHRINGER INGELHEIM INTERNATIONAL GMBH, priority 2021, published 2024).

≈ marks a conversion by molar mass, not a printed value. Where two headings read alike, the source gives them in different places.

KRAS (G12D)::SOS1, sequence (P01116 other isoform, or with tags, fused parts or gaps G12D): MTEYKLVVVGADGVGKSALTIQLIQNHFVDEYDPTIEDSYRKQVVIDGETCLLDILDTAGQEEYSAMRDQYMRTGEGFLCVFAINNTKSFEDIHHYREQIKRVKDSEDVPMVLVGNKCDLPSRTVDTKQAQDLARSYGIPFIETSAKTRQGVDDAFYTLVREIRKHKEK

For `C[C@H](Oc1cc(N2CC[C@H](N(C)C)C2)nc(-c2noc3c2CCC[C@@]32CCCc3sc(N)c(C#N)c32)n1)[C@@H]1CCCN1C` [II-49], the IC50 on KRAS (G12D)::SOS1 came out at 1 nM; with SAS cells, 1180 nM. Also, the solubility at 24 h in data set [1] (setting [3]) is over 141 µg/mL; in data set [1] (setting [4]), 114 µg/mL (≈ 189 µM). Further, in data set [2], the fraction unbound came out at 0.36.

With `C[C@H](Oc1cc(N2CCNC[C@]23CCOC3)nc(-c2noc3c2CCC[C@@]32CCCc3sc(N)c(C#N)c32)n1)[C@@H]1CCCN1C` [II-50], the IC50 at KRAS (G12D)::SOS1 turned out to be 1 nM; with SAS cells it was 41 nM. The solubility at 24 h in data set [1] (setting [3]) is over 144 µg/mL; in data set [1] (setting [4]) it was over 135 µg/mL. The fraction unbound in data set [2] was 0.38.

As to `C[C@H](Oc1cc(N2CCNC[C@@]23CCOC3)nc(-c2noc3c2CCC[C@@]32CCCc3sc(N)c(C#N)c32)n1)[C@@H]1CCCN1C` [II-51], the IC50 on KRAS (G12D)::SOS1 worked out at 1 nM; with SAS cells it was 70 nM. Also, the results for the solubility at 24 h in data set [1] (setting [3]) and in data set [1] (setting [4]) were over 138 µg/mL and over 133 µg/mL, respectively. Further, the fraction unbound in data set [2] is 0.39.

Turning to `C[C@H](Oc1cc(N2CCNC3(CC3)C2)nc(-c2noc3c2CCC[C@@]32CCCc3sc(N)c(C#N)c32)n1)[C@@H]1CCCN1C` [II-54], the IC50 on KRAS (G12D)::SOS1 is 1 nM; in the data set with SAS cells, 234 nM. Also, the solubility at 24 h in data set [1] (setting [3]) is over 134 µg/mL; in data set [1] (setting [4]), over 122 µg/mL. The fraction unbound in data set [2] worked out at 0.3.

As for `C[C@H](Oc1cc(N2CCN(C)CC2)nc(-c2noc3c2CCC[C@@]32CCCc3sc(N)c(C#N)c32)n1)[C@@H]1CCCN1C` [II-55], the IC50 at KRAS (G12D)::SOS1 is 1 nM; in the data set with SAS cells, 968 nM. The solubility at 24 h was over 172 µg/mL in data set [1] (setting [3]) and over 161 µg/mL in data set [1] (setting [4]). Moreover, the fraction unbound in data set [2] worked out at 0.26.

Turning to `C[C@H](Oc1cc(N2C[C@H](C)N[C@@H](C)C2)nc(-c2noc3c2CCC[C@@]32CCCc3sc(N)c(C#N)c32)n1)[C@@H]1CCCN1C` [II-56], the figures for the IC50 at KRAS (G12D)::SOS1 and with SAS cells were 1 nM and 1430 nM, respectively. Besides, the solubility at 24 h in data set [1] (setting [3]) was over 144 µg/mL; in data set [1] (setting [4]) it was over 146 µg/mL. The fraction unbound in data set [2] was 0.48.

Consider `C[C@H](Oc1cc(N2CCC[C@H](O)C2)nc(-c2noc3c2CCC[C@@]32CCCc3sc(N)c(C#N)c32)n1)[C@@H]1CCCN1C` [II-57], for which the IC50 is 2 nM on KRAS (G12D)::SOS1 and 54 nM with SAS cells. Moreover, the solubility at 24 h turned out to be 109 µg/mL (≈ 185 µM) in data set [1] (setting [3]) and 101 µg/mL (≈ 171 µM) in data set [1] (setting [4]). In data set [2], the fraction unbound was found to be 0.5.

As to `CO[C@@H]1C[C@@H]([C@H](C)Oc2cc(-n3ccnc3)nc(-c3noc4c3CCC[C@@]43CCCc4sc(N)c(C#N)c43)n2)N(C)C1` [II-58], the IC50 on KRAS (G12D)::SOS1 stood at 3 nM; in the data set with SAS cells, 342 nM. Further, the values for the solubility at 24 h in data set [1] (setting [3]) and in data set [1] (setting [4]) were over 124 µg/mL and 2 µg/mL (≈ 3.41 µM), respectively. The fraction unbound in data set [2] stood at 0.31.

In the case of `C[C@H](Oc1cc(N2CCC[C@@H](O)C2)nc(-c2noc3c2CCC[C@@]32CCCc3sc(N)c(C#N)c32)n1)[C@@H]1CCCN1C` [II-59], the IC50 on KRAS (G12D)::SOS1 stood at 2 nM; with SAS cells it was 31 nM. In addition, the solubility at 24 h in data set [1] (setting [3]) is over 133 µg/mL; in data set [1] (setting [4]) it was over 123 µg/mL. Moreover, the fraction unbound in data set [2] was 0.64.

Turning to `C[C@H](Oc1cc(N2CCOC3(CC3)C2)nc(-c2noc3c2CCC[C@@]32CCCc3sc(N)c(C#N)c32)n1)[C@@H]1CCCN1C` [II-61], the values for the IC50 on KRAS (G12D)::SOS1 and in the data set with SAS cells were 3 nM and 169 nM, respectively. Also, the results for the solubility at 24 h in data set [1] (setting [3]) and in data set [1] (setting [4]) were 111 µg/mL (≈ 184 µM) and 41 µg/mL (≈ 68.1 µM), respectively. The fraction unbound in data set [2] is 0.26.

On to `CO[C@@H]1C[C@@H]([C@H](C)Oc2cc(-c3cnn(C)n3)nc(-c3noc4c3CCC[C@@]43CCCc4sc(N)c(C#N)c43)n2)N(C)C1` [II-62], for which the IC50 on KRAS (G12D)::SOS1 turned out to be 7 nM; in the data set with SAS cells, 50 nM. Further, the solubility at 24 h in data set [1] (setting [3]) was over 129 µg/mL; in data set [1] (setting [4]), under 1 µg/mL. Moreover, the fraction unbound in data set [2] is 0.18.

For orientation: IC50 means the point on the concentration scale where inhibition reaches its midpoint. Higher therefore signals a need for much substance. For orientation: solubility means how much of the substance goes into solution per volume.
